From ChEMBL document CHEMBL1144319, “Design, synthesis, and evaluation of oxazole transthyretin amyloidogenesis inhibitors” (Bioorg Med Chem Lett, 2005)

Target: Transthyretin (Homo sapiens) (UniProt P02766)
Assay: Binding selectivity to transthyretin in human blood plasma after 24 hincubation with 10.8 uM inhibitor
Type: cell-free

| Molar equivalence bound | SMILES |
| --- | --- |
| 0.49 | CCc1oc(-c2cc(Cl)cc(Cl)c2)nc1C(=O)O |
| 0.68 | O=C(O)c1nc(-c2cc(Cl)cc(Cl)c2)oc1C(F)(F)F |
